Data as given in patent publication US12097181B2, “Swine maternal neonatal pheromone” (Texas Tech University System, priority 2019, dated 2024).
Entries after “also recorded” stand apart in the source; their conditions may differ.

Test system: piglets
Assay: Preference test: piglet preference for feeders sprayed with maternal semiochemicals
Assay type: in vivo, Swine (Sus scrofa)
Conditions: for overall preference index (PI) / percentage of time piglets spent interacting with the feeder: feeder sprayed with 5 mL testing solution (4.5 mg skatole and/or 9.0 mg myristic acid) vs mineral oil control feeder, litters 7±2 d of age, two 5-h test days; for piglet preference or aversion for sprayed feeder compared to control: feeder sprayed with testing solution vs mineral oil control
Method: Piglets used in this study were from a terminal cross between PIC Camborough genetic line sows and a terminal sire. Litters were housed in conventional slatted floor farrowing crates (1.52 m×2.13 m). All piglets were ear notched, teeth clipped, and injected with iron at 3 days of age. During this day, all males within a litter were also castrated by farm personnel. Prior to the study, piglets had no creep feeder. The preference test was performed in their home farrowing crate. Preference tests were conducted to determine piglet preference for skatole and myristic acid. First, nine litters (105 piglets) were used to evaluate piglet preference toward a solution containing both, skatole and myristic acid (N=9). Once piglet preference for a solution containing both molecules was determined, 8 litters (79 piglets) were used to evaluate piglet preference for skatole (N=8) and another 8 litters (80 piglets) to evaluate piglet preference for myristic acid (N=8) individually. Each litter was tested only once to ensure that piglets were tested at the same age and that they were not previously exposed to a feeder or a semiochemical.
At 7±2 days of age, two three-hole galvanized steel baby pig feeders were placed at each front corner of the farrowing crate for five hours for two consecutive days (FIG. 6). […] The sow was present during each five hours trial. Each feeder contained 100 g of pig pre-starter (MoorMan's ShowTec Prestarter, ADM, Quincy, IL) and was sprayed with either 5 mL of mineral oil (control) or 5 mL of the testing solution. The solution was sprayed on the feeder and not the feed. The 5 mL of the testing solution contained 4.5 mg of skatole and/or 9.0 mg of myristic acid. This concentration was selected based on the estimated concentration of each analyte in 150 g of lactating sow faeces based on GC/MS analysis. On the second testing day, feeder locations were switched to correct for side biases. A single observer following a 30 second scan sampling method, observed the behavior of each piglet in the litter at 30 second intervals to determine the percentage of time piglets spent interacting with each feeder during the five-hour period each testing day. A total of 600 observations were recorded per litter in each testing day. The percentage of time piglets within a litter spent interacting with each feeder was calculated by dividing the number of time piglets were observed interacting with a feeder over the total number of observations. Interacting with the feeder was defined as when piglets were sniffing, touching or licking the area of the feeder sprayed with the solution or eating or rooting the feed. A preference index was calculated for each feeder by dividing the amount of time piglets were observed interacting with a feeder by the sum of the number of times piglets were observed interacting with both feeders.
For each litter (experimental unit), an overall feed intake, preference index, and percentage of time interacted with each feeder was obtained from both testing days. Difference in overall feed intake, preference index, and percentage of time piglets spent interacting with the control and the feeder sprayed with the testing solutions were analyzed using the Wilcoxon-singed ranked test. […] All statistical analyses were performed using SAS 9.4. (SAS Inst., Inc., Cary, NC). A statistically significant difference was based on a P value≤0.05.

Structure (SMILES) | overall preference index (PI) | percentage of time piglets spent interacting with the feeder [%] | piglet preference or aversion for sprayed feeder compared to control
CCCCCCCCCCCCCC(=O)O [Myristic acid, Tetradecanoic acid] | 0.47 | 0.48 | No preference or aversion; also recorded: No preference
Cc1c[nH]c2ccccc12 [Skatole, 3-methylindole] | 0.51 | 0.54 | No preference or aversion; also recorded: No preference
